Reference: patent US5523403A, “Tropone-substituted phenyloxazolidinone antibacterial agents” (The Upjohn Company, priority 1995, dated 1996)
Values after ≈ are worked out from the molar mass of the structure shown.

Columns and labels:
[1] = tested on: Streptococcus pyogenes UC ® 152; experiment: in vitro antibacterial activity, Minimum Inhibitory Concentration, Streptococcus pyogenes; settings: for MIC: Streptococcus pyogenes, UC152, read-out: Minimum Inhibitory Concentration; for Minimum Inhibitory Concentration: in vitro, Streptococcus pyogenes UC ® 152
[2] = tested on: Staphylococcus aureus UC ® 9213; experiment: in vitro antibacterial activity, Minimum Inhibitory Concentration, Staphylococcus aureus; settings: for MIC: Staphylococcus aureus, UC9213, read-out: Minimum Inhibitory Concentration; for Minimum Inhibitory Concentration: in vitro, Staphylococcus aureus UC ® 9213

Molecule	MIC [1]	MIC [2]	Minimum Inhibitory Concentration [1]	Minimum Inhibitory Concentration [2]
C#CCNc1cccc(-c2ccc(N3CC(CNC(C)=O)OC3=O)cc2)cc1=O (racemic) [Compound 29, (±)-N-[[3-[4-[4-(2-pyopynylamino)-3-oxo-1,4,6-cycloheptatrien-1-yl)phenyl]2-oxo-5-oxazolidinyl]methyl-acetamide]	0.5 µg/mL (≈ 1.28 µM)	2 µg/mL (≈ 5.11 µM)	–	–
CNc1ccc(-c2ccc(N3CC(CNC(C)=O)OC3=O)cc2)ccc1=O (racemic) [Compound 31, (±)-N-[[3-[4-(4-methylamino--5-oxo1,3,6-cyclopheptatrien1-yl)phenyl]2-oxo-5-oxazolidinyl]methyl]-acetamide]	0.25 µg/mL (≈ 0.68 µM)	2 µg/mL (≈ 5.44 µM)	–	–
CC(=O)NCC1CN(c2ccc(-c3ccc(N4CCCCC4)c(=O)cc3)cc2)C(=O)O1 (racemic) [Compound 15, (±)-N-[[3-[4-[4-(1-piperidinyl)-5-oxo-1,3,6-cycloheptatrien-1-yl]phenyl]-2-oxo-5-oxazolidinyl]methyl]-acetamide]	1 µg/mL (≈ 2.37 µM)	2 µg/mL (≈ 4.74 µM)	–	–
COc1ccc(-c2ccc(N3C[C@H](CNC(C)=O)OC3=O)cc2F)ccc1=O [Compound 19]	0.25 µg/mL (≈ 0.647 µM)	1 µg/mL (≈ 2.59 µM)	–	–
CC(=O)NCC1CN(c2ccc(-c3ccc(N4C[C@@H](C)N[C@@H](C)C4)c(=O)cc3)cc2)C(=O)O1 (mixture of isomers) [Compound 14, (±)-N-[[3-[4-[4-(cis-3,5-dimethyl-1-piperazinyl)-5-oxo-1,3,6-cycloheptatrien-1-yl]phenyl]-2-oxo5-oxazolidinyl]methyl]-acetamide]	0.5 µg/mL (≈ 1.11 µM)	8 µg/mL (≈ 17.8 µM)	–	–
COc1ccc(-c2ccc(N3CC(CNC(C)=O)OC3=O)cc2)ccc1=O (racemic) [Compound 1, (±)-N[[3-[4-(4-methoxy-5-oxo-,1,3,6-cycloheptatrien-yl)phenyl]-2-oxazolidinyl]methyl-acetamide]	0.25 µg/mL (≈ 0.679 µM)	2 µg/mL (≈ 5.43 µM)	–	–
CC(=O)NCC1CN(c2ccc(-c3ccc(NC4CCCC4)c(=O)cc3)cc2)C(=O)O1 (racemic) [Compound 11, (±)-N-[[3-[4-(4-cyclopentylamino-5-oxo-1,3,6-cycloheptatrien-1-yl)phenyl]-2-oxo-5-oxazolidinyl]methyl]-acetamide]	1 µg/mL (≈ 2.37 µM)	4 µg/mL (≈ 9.49 µM)	–	–
CC(=O)NCC1CN(c2ccc(-c3ccc(NCCO)c(=O)cc3)cc2)C(=O)O1 (racemic) [Compound 4, (±)-N-[[3-[4-[4-[(2-hydroxyethyl)amino]-5-oxo1,3,6-cycloheptatrien-1-yl]phenyl]-2oxo-5-oxazolidinyl]methyl-acetamide]	0.5 µg/mL (≈ 1.26 µM)	4 µg/mL (≈ 10.1 µM)	–	–
C#CCNc1ccc(-c2ccc(N3C[C@H](CNC(C)=O)OC3=O)cc2F)ccc1=O [Compound 34]	–	–	0.25 µg/mL	1 µg/mL
CC(=O)NCC1CN(c2ccc(-c3ccc(N4CCC(O)C4)c(=O)cc3)cc2)C(=O)O1 (racemic) [Compound 18, (±)-N-[[3-[4-[4-(3-hydroxy-1-pyrrolidinyl)-5-oxo-1,3,6-cycloheptatrien-1-yl]phenyl]-2-oxo-5oxazolidinyl]methyl]-acetamide]	1 µg/mL (≈ 2.36 µM)	4 µg/mL (≈ 9.45 µM)	–	–
C=CCOc1ccc(-c2ccc(N3CC(CNC(C)=O)OC3=O)cc2)ccc1=O (racemic) [Compound 33, (±)-N-[[3-[4-[4-(2-propenyloxy)5-oxo-1,3,6-cycloheptatrien-1-yl]phenyl]-2-oxo-5-oxazolidinyl)methyl]-acetamide]	1 µg/mL (≈ 2.54 µM)	4 µg/mL (≈ 10.1 µM)	–	–
COc1ccc(-c2ccc(N3CC(CNC(C)=O)OC3=O)cc2F)ccc1=O (racemic) [Compound 16, (±)-N-[[3-[3-fluoro-4-(4-methoxy-5-oxo-1,3,6-cycloheptatrien-1-yl)phenyl]-2-oxo-5-oxazolidinyl]methyl]-acetamide]	0.25 µg/mL (≈ 0.647 µM)	1 µg/mL (≈ 2.59 µM)	–	–
C=CCNc1cccc(-c2ccc(N3CC(CNC(C)=O)OC3=O)cc2)cc1=O (racemic) [Compound 26, (±)-N[[3-[4-[4-(2-propenylamino)-3-oxo1,4,6-cycloheptatrien-1-yl]phenyl-2oxo-5-oxazolidinyl]methyl]-acetamide]	1 µg/mL (≈ 2.54 µM)	2 µg/mL (≈ 5.08 µM)	–	–
CC(=O)NC[C@H]1CN(c2ccc(-c3ccc(N4CCOCC4)c(=O)cc3)c(F)c2)C(=O)O1 [Compound 36, (S)-N-[[3-[3-fluoro4[(4-morpholino)-5-oxo-1,3,6cycloheptatrien-1-yl]phenyl]-2-oxo-5oxazolidinyl]methyl]-acetamide]	0.5 µg/mL (≈ 1.13 µM)	2 µg/mL (≈ 4.53 µM)	–	–
COC(=O)CNc1ccc(-c2ccc(N3CC(CNC(C)=O)OC3=O)cc2)ccc1=O (racemic) [Compound 30, (±)-N-[[3-[4-[-[[(methoxycarbonyl)methyl]amino]-5-oxo-1,3,6cycloheptatrien-1-yl]phenyl]-2-oxo-5-oxazolidinyl]methyl]-acetamide]	–	–	1 µg/mL	4 µg/mL
CC(=O)NCC1CN(c2ccc(-c3ccc(N4CCCC4)c(=O)cc3)cc2)C(=O)O1 (racemic) [Compound 9, (±)-N-[[3-[4-[4-(1-pyrrolidinyl)-5-oxo-1,3,6-cycloheptatrien-1-yl]]phenyl]-2-oxo-5-oxazolidinyl]methyl]-acetamide]	1 µg/mL (≈ 2.45 µM)	4 µg/mL (≈ 9.82 µM)	–	–

Molecule	MIC [1]	MIC [2]	Minimum Inhibitory Concentration [1]	Minimum Inhibitory Concentration [2]
CCCCNc1ccc(-c2ccc(N3CC(CNC(C)=O)OC3=O)cc2)ccc1=O (racemic) [Compound 13, (±)-N-[[3-[4-(4-butylamino-5-oxo-1,3,6-cycloheptatrien-1-yl)phenyl]-2-oxo-5-oxazolidinyl]methyl]-acetamide]	0.5 µg/mL (≈ 1.22 µM)	2 µg/mL (≈ 4.88 µM)	–	–
CC(=O)NCC1CN(c2ccc(-c3ccc(NC4CC4)c(=O)cc3)cc2)C(=O)O1 (racemic) [Compound 6, (±)-N-[[3-[4-(4-cyclopropylamino-5-oxo-1,3,6-cycloheptatrien-1-yl)phenyl]-2-oxo-5-oxazolidinyl]methyl]-acetamide]	0.5 µg/mL (≈ 1.27 µM)	2 µg/mL (≈ 5.08 µM)	–	–
CC(=O)NCC1CN(c2ccc(-c3ccc(N4CCNCC4)c(=O)cc3)cc2)C(=O)O1 (racemic) [Compound 12, (±)-N-[[3-[4-[4-(1-piperazinyl)-5-oxo-1,3,6-cycloheptatrien-1-yl]phenyl]-2-oxo-5-oxazolidinyl]methyl]-acetamide]	0.25 µg/mL (≈ 0.592 µM)	8 µg/mL (≈ 18.9 µM)	–	–
CC(=O)NCC1CN(c2ccc(-c3ccc(N4CCN(C)CC4)c(=O)cc3)cc2)C(=O)O1 (racemic) [Compound 10, (±)-N-[[3-[4-[4-(4-methyl-1-piperazinyl)-5-oxo-1,3,6-cycloheptatrien-1-yl]phenyl]-2-oxo-5-oxazolidinyl]methyl]-acetamide]	0.12 µg/mL (≈ 0.275 µM)	2 µg/mL (≈ 4.58 µM)	–	–
CC(=O)NCC1CN(c2ccc(-c3ccc(N4CCOCC4)c(=O)cc3)cc2)C(=O)O1 (racemic) [Compound 5, (±)-N-[[3-[4-[4-(4-morpholino)-5-oxo1,3,6-cycloheptatrien-1-yl]phenyl]2oxo5-oxazolidinyl]methyl]-acetamide]	0.5 µg/mL (≈ 1.18 µM)	2 µg/mL (≈ 4.72 µM)	–	–
C=CCNc1ccc(-c2ccc(N3CC(CNC(C)=O)OC3=O)cc2)ccc1=O (racemic) [Compound 8, (±)-N-[[3-[4-[4-(2-propenylamino)5-oxo-1,3,6-cycloheptatrien-1-yl]phenyl]-2-oxo-5-oxazolidinyl]methyl]-acetamide]	0.5 µg/mL (≈ 1.27 µM)	2 µg/mL (≈ 5.08 µM)	–	–
(±)-N-[[3-[4-[4-(3-amino-1-yl]phenyl]-2-oxo-5-oxazolidinyl]methyl]-acetamide [Compound 23]	–	–	0.25 µg/mL	16 µg/mL
CC(=O)NCC1CN(c2ccc(-c3ccc(N4CC=CC4)c(=O)cc3)cc2)C(=O)O1 (racemic) [Compound 32, (±)-N-[[3-[4-[4-(2,5dihydro-1H--pyrrol-1-yl)-5-oxo-1,3,6-cycloheptatrien-1-yl]phenyl]-2-oxo-5-oxazolidinyl]methyl]-acetamide]	4 µg/mL (≈ 9.87 µM)	32 µg/mL (≈ 78.9 µM)	–	–
CC(=O)NCC1CN(c2ccc(-c3ccc(NCc4ccccc4)c(=O)cc3)cc2)C(=O)O1 (racemic) [Compound 3, (±)-Acetamide, N-[[2-oxo-3-[4-[5-oxo-4-[(phenylmethyl)amino]-1,3,6-cycloheptatrien-1-yl]phenyl]-5-oxazolidinyl]methyl]]	4 µg/mL (≈ 9.02 µM)	> 64 µg/mL	–	–
CC(=O)NCC1CN(c2ccc(-c3ccc(N4CCN(C=O)CC4)c(=O)cc3)cc2)C(=O)O1 (racemic) [Compound 7, (±)-N-[[3-[4-[4-(4-formyl-1-piperazinyl)-5-oxo-1,3,6-cycloheptatrien-1-yl]phenyl]-2-oxo-5-oxazolidinyl]methyl]-acetamide]	0.5 µg/mL (≈ 1.11 µM)	4 µg/mL (≈ 8.88 µM)	–	–
CC(=O)NCC1CN(c2ccc(-c3ccc(N4CCNC(C)C4)c(=O)cc3)cc2)C(=O)O1 (racemic) [Compound 17, (±)-N-[[3-[4-[4-(3-methyl-1-piperazinyl)-5-oxo-1,3,6-cycloheptatrien-1-yl]phenyl]2-oxo-5-oxazolidinyl]methyl]-acetamide]	0.25 µg/mL (≈ 0.573 µM)	8 µg/mL (≈ 18.3 µM)	–	–
COCCOc1ccc(-c2ccc(N3CC(CNC(C)=O)OC3=O)cc2)ccc1=O (racemic) [Compound 35, (±)-N-[[3-[4-[4-(2-methoxyethoxy)-5-oxo-1,3,6cycloheptatrien1-yl]phenyl)-2-oxo-5-oxazolidinyl]methyl]-acetamide]	1 µg/mL (≈ 2.42 µM)	4 µg/mL (≈ 9.7 µM)	–	–
COc1cccc(-c2ccc(N3CC(CNC(C)=O)OC3=O)cc2)cc1=O (racemic) [Compound 20, (±)-N-[[3-[4-[4-methoxy-3-oxo-1,4,6-cycloheptatrien-1-yl)phenyl]-2-oxo-5-oxazolidinyl]methyl]-acetamide]	0.5 µg/mL (≈ 1.36 µM)	4 µg/mL (≈ 10.9 µM)	–	–
CC(=O)NC[C@H]1CN(c2ccc(-c3ccc(N4CCOCC4)c(=O)cc3)cc2)C(=O)O1 [Compound 25, (S)-N-[[3-[4[4-(4-morpholino)-5-oxo-1,3,6-cycloheptatrien-1-yl]phenyl]-2-oxo-5-oxazolidinyl]methyl]-acetamide]	0.5 µg/mL (≈ 1.18 µM)	2 µg/mL (≈ 4.72 µM)	–	–
COc1ccc(-c2ccc(N3C[C@H](CNC(C)=O)OC3=O)cc2)ccc1=O [Compound 28, (S)-N-[[3-[4-methoxy-5-oxo-1,3,6-cycloheptatrien-yl)phenyl-2-oxo-5-oxazolidinyl)methyl]-acetamide]	–	1 µg/mL (≈ 2.71 µM)	–	–
